The text below walks through data of patent publication US4618613A, “Preventive and healing composition for diseases due to lipoxygenase metabolic products” (Kyowa Hakko Kogyo Company, Ltd., priority 1983, dated 1986).

Structures are written as SMILES. Where a name gives a salt, the structure may show the parent alone. Read-outs that look alike come from different tables or passages of the source.

For experiment [1], the target named is T1, 12-lipoxygenase (Bos taurus, UniProt F1MFA8).
T1 construct: a preparation prepared from bovine blood platelets was used as an enzyme source; from tissue; host or cells: bovine blood platelets
T1 sequence (F1MFA8 1-663): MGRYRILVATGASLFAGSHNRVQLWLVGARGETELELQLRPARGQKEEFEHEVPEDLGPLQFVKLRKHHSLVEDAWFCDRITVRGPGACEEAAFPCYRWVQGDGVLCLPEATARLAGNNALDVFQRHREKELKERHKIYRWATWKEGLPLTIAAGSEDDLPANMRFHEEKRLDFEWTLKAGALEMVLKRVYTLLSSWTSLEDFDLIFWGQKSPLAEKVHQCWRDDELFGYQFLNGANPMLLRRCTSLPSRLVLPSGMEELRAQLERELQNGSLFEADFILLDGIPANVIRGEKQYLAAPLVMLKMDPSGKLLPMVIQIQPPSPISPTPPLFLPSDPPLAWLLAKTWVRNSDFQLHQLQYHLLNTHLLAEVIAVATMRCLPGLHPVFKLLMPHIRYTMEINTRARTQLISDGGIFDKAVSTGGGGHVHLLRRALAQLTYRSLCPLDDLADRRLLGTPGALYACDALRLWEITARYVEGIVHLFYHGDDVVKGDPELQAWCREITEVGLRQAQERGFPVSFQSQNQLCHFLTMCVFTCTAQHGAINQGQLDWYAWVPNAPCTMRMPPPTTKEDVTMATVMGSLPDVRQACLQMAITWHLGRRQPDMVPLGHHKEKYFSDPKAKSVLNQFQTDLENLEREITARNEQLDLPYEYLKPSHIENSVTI
Briefly: inhibiting action upon blood platelet 12-lipoxygenase. In kind it is biochemical, bovine. Particulars: for inhibition at 1000 µM: pH 7.4, with 1,000 μM of each compound, read-out: 12-lipoxygenase, inhibiting ratio. How it is done: (§1) An inhibiting action of 2-n-heptyl-4-hydroxyquinoline-N-oxide upon lipoxygenase was determined by in vitro test according to the following procesure:
(a) Procedure for determining the inhibiting action upon blood platelet 12-lipoxygenase:
Determination was carried out according to D. H. Nugtern, et al, procedure (Biochem. Biophys. Acta, 380, 299 (1975)). That is, a preparation prepared from bovine blood platelets was used as an enzyme source. The blood platelet lipoxygenase preparation and 2-n-heptyl-4-hydroxyguinoline-N-oxide were brought into contact with each other in a 0.01M tris hydrochloric acid buffer solution (pH 7.4) at 30° C. for 5 minutes in advance, and then 35 μM of [^14 C]arachidonic acid was added thereto. The mixture was incubated at 30° C. for 10 minutes. The reaction product was extracted with ethyl acetate/methanol/0.2M citric acid (30/4/1), and then separated by thin layer chromatography (developing solvent system: ligroin/ethyl ether/acetic acid: (50/50/1). The spot of 12-hydroxy-5,8,10,14-eicosatetraenoic acid in the product was scraped off and ^14 C was measured by a liquid scintillation counter.
(§2) Inhibiting actions of compounds in Table 2 upon lipoxygenase were determined in the same manner as in Test Example 1.

Experiment [2] addresses T2, 5-lipoxygenase (Rattus norvegicus, UniProt P12527).
T2 construct: leukemic basophilic granulocyte cells of rats (RBL-1, ATCC No. CRL 1378) were used as a 5-lipoxygenase enzyme source; host or cells: RBL-1 (rat basophilic leukemia cells)
T2 sequence (P12527 1-673): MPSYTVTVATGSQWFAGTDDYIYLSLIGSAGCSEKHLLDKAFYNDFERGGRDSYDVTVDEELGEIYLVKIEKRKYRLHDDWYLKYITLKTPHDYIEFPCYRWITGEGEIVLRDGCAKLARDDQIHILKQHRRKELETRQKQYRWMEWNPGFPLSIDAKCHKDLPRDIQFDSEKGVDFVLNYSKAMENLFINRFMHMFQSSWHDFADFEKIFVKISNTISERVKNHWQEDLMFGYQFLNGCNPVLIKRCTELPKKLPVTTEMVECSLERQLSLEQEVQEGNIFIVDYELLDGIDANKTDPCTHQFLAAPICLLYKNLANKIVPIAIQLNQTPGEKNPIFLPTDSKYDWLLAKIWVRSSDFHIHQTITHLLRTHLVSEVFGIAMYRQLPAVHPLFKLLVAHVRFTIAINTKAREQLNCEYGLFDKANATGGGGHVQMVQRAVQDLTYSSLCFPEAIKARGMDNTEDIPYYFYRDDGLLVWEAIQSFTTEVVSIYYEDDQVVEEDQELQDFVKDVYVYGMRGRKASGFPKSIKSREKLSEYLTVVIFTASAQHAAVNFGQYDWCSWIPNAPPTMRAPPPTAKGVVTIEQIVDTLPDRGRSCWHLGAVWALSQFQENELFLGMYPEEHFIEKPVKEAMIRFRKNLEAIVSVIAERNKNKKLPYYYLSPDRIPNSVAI
As to the kind of experiment: inhibiting action upon leukocyte 5-lipoxygenase (RBL-1 cells as enzyme source). Type of experiment: biochemical. How it is done:
as §1
(b) Procedure for determining the inhibiting action upon leukocyte 5-lipoxygenase:
Determination was carried out according to modified B. A. Jakschik, et al, procedure (Biochem. Biophys. Res. Commun. 95, 103 (1980)). That is, leukemic basophilic granulocyte cells of rats (RBL-1, ATCC No. CRL 1378) were used as a 5-lipoxygenase enzyme source. The cells and 2-n-heptyl-4-hydroxyquinoline-N-oxide were brought into contact with each other in a 0.07 M tris hydrochloric acid buffer solution in the presence of 0.7 mM calcium chloride at 37° C. for 5 minutes, and then 20 μM of [^14 C]-arachidonic acid was added thereto. The mixture was incubated at 37° C. for 5 minutes. The reaction product was extracted with ethyl acetate/methanol/0.2M citric acid (30/4/1), and then separated by thin layer chromatography (developing solvent: petroleum ether/ethyl ether/acetic acid: 50/50/1). Spots of 5-hydroxy-[…]-eicosatetraenoic acid in the product were scraped off and ^14 C was measured by a liquid scintillation counter.
as §2

Experiment [3] concerns SRS-A production. Briefly: suppressing action upon production of SRS-A (lung pieces of actively sensitized guinea pigs, EWA challenge). Type of experiment: cell-based, guinea pig. Particulars: for inhibition at 8.3 µg/mL: 8.3 μg/ml; for suppression of the production of SRS-A (in words): Table 4, 8.3 μg/ml. How it is done: An inhibiting action of 2-n-heptyl-4-hydroxyquinoline-N-oxide upon SRS-A production was determined according to the following procedure:
According to Watanabe-Kohno and Parker procedure (J. Immunol., 125, 946 (1980)), 20 mg of egg white albumin (hereinafter abbreviated as EWA), was dissolved in 10 ml of physiological saline solution, and the resulting solution was added to an equal volume of Freund's complete adjuvant to prepare an emulsion. Then, 1 ml of the emulsion was administered subcutaneously in the plantar surface of the hind paws of guinea pigs to make the animals actively sensitized. Three to five weeks thereafter, the guinea pigs were sacrified by exsanguination from the carotid artery, and the Tyrode's solution was perfused through right cardiac ventricle to wash lungs and remove blood. Then, the lungs were isolated and cut to pieces of about 2 mm size in the chilled Tyrode's solution with scissors, filtered through 2 sheets of gauze. Then, 400 mg of the fragments were distributed into individual test tubes containing 5 ml of the Tyrode's solution. The lung pieces were preincubated at 37° C. for 10 minutes, 0.5 ml of a test solution at various concentrations was added thereto, and the incubation was continued for 10 minutes at 37° C. Then, 0.5 ml of EWA (20 mg/ml) was added thereto, and the mixture was further incubated for 15 minutes. The reaction was discontinued by ice-cooling the mixture, and then the mixture was filtered through a sheet of gauze.
(§3) The amount of SRS-A in the filtrate was bioassayed using guinea pig ileum according to the Magnus procedure. That is, the ileums were suspended in 10 ml of organ bath filled with the Tyrode's solution (31 ±1° C., aerated with 95% O2 +5% CO2 gas mixture), and their movements were recorded on a recorder with a pen (Hitachi: QPD54) through an isotonic transducer (Nihon Koden: JD112S). After the ileum contraction reaction by 10^-7 M histamine was stabilized, 1 ml of the filtrate was added to the organ bath in the presence of 5 x 10^-7 M atropine and 10^-6 M tripelennamine to cause the ileum contraction reaction. It was known that the ileum contraction reaction by SRS-A was increased by repetitive applications and, therefore, after the reaction by at least 5 applications of the SRS-A prepared in advance became constant, control filtrate and a filtrate containing a test solution were used.
Suppressing actions of 2-n-propyl-4-hydroxyquinoline-N-oxide and 2-n-undecyl-4-hydroxyquinoline-N-oxide upon production of SRS-A were determined in the same manner as in Test Example 3.

Experiment [4] has as its system SRS-A. Briefly: guinea pig ileum contraction reaction by SRS-A (Magnus procedure). Particulars: 3×10^-7 M. How it is done: as §3
The subject of experiment [5] is airway contraction reaction of passively sensitized guinea pigs. Briefly: suppressing action upon anaphylactic airway contraction reaction of passively sensitized guinea pigs. Particulars: 10 mg/kg P.O. one hour before antigen EWA (1 mg/kg); 6 guinea pigs vs 18 control. Type of experiment: in vivo, guinea pig. How it is done:
Suppressing action of 2-n-heptyl-4-hydroxyquinoline-N-oxide upon the airway contraction reaction of passively sensitized guinea pigs was determined according to the following procedure:
Anaphylactic airway contraction reaction of passively sensitized guinea pigs by antigen administration was determined according to modified Konzett and Rossler procedure (Arch. exp. Path. Pharmakol., 195, 71 (1940)). Anti-EWA guinea pig serum (1 ml/animal) was intraperitoneally administered into normal guinea pigs to make the animals passively sensitized, and 24 hours thereafter, a tracheal cannule was inserted and fixed to the guinea pig under urethane anesthesia. An artificial respirator and a bronchospasm transducer were connected to the cannule. After the spontaneous respiration was stopped by intravenous injection of 10 mg/kg of gallamine triethiodide, 1 mg/kg of EWA was injected into the jugular vein to cause anaphylactic airway contraction, and the volume of air overflow from the tracheal cannule sideway was recorded on a polygraph through the transducer. After the end of measurement, the trachea was completely blockaded. The state of complete blockade was regarded as a maximum contraction, and the results were given in percentage to the maximum contraction.

[6] abbreviates: Table 2, same manner as Test Example 1.
Setting [7] is: Cavia porcellus, read-out: Suppressing ratio, production of SRS-A.

Regarding `CCCCCCCCCCCCCCCc1cc(O)c2ccccc2[n+]1[O-]` [2-n-pentadecyl-4-hydro-xy-quinoline-N--oxide], the inhibition at 1000 µM in experiment [1] (10 min) was found to be 56%. Moreover, the midpoint of inhibition in experiment [2] (setting [6]), the IC50, lay at 1 µM.
With `CCCc1cc(O)c2ccccc2[n+]1[O-]` [2-n-propyl-4-hydroxyquinoline-N-oxide], the inhibition at 1000 µM in experiment [1] (10 min) is 46.3%. For the same compound, the half-inhibitory concentration (IC50) in experiment [2] (setting [6]) is 110 µM. Also, the inhibition at 8.3 µg/mL in experiment [3] (setting [7]) was 34.1%. Moreover, in experiment [3], the “suppression of the production of SRS-A (in words)” value was “suppress the production of SRS-A”.
For `NC1=NN(c2cccc(C(F)(F)F)c2)CC1` [BW-755C, 3-amino-1-(3-trifluoromethylphenyl)-2-pyrazoline hydrochloride, reference compound], the 50% inhibitory concentration (IC50) in experiment [1] (bovine blood platelet preparation, 35 μM [14C]arachidonic acid, pH 7.4, 30° C., 10 min, read-out: IC50, 12-lipoxygenase) was determined as 25 µM. Moreover, the inhibition at 40 µg/mL in experiment [3] (Cavia porcellus, 40 μg/ml, read-out: Suppressing ratio, production of SRS-A) came to 23.8 ± 8.8%.
As to `CCCCCCCCCCCc1cc(O)c2ccccc2[n+]1[O-]` [2-n-undecyl-4-hydroxyquinoline-N-oxide], the inhibition at 1000 µM in experiment [1] (10 min) worked out at 55.7%. Besides, the IC50 in experiment [2] (setting [6]) was 0.2 µM. In addition, the inhibition at 8.3 µg/mL in experiment [3] (setting [7]) is 17.5%. The “suppression of the production of SRS-A (in words)” value in experiment [3] is reported as “suppress the production of SRS-A”.
`CCCc1c(OCC(O)COc2ccc3c(=O)cc(C(=O)O)oc3c2CCC)ccc(C(C)=O)c1O` (centres unmarked) [FPL-55712]: in experiment [4], the “suppression of ileum contraction reaction by SRS-A” value is reported as “almost completely suppressed”.
In experiment [1], `CCCCCCCc1cc(O)c2ccccc2[n+]1[O-]` [2-n-heptyl-4-hydroxyquinoline-N-oxide] had an IC50 of 30 µM. Further, the “inhibiting action upon 12-lipoxygenase compared with BW-755C” value in experiment [1] (in words) was “almost equal to that of known compound”. In addition, inhibition in experiment [2] was half-maximal at 0.15 µM (IC50). Besides, in experiment [2] (in words), the “inhibiting action upon 5-lipoxygenase compared with BW-755C” value is “much better in the present compound”. In experiment [3] (4, 40, and 400 μg/ml), the “formation of SRS-A (in words)” value is “suppressed by application of 4, 40, and 400 μg/ml of the present compound in a dose dependent manner”. In experiment [3] (setting [7]), the inhibition at 4 µg/mL was found to be 26.2 ± 4.2%, the inhibition at 40 µg/mL was determined as 60.1 ± 3.7% and the inhibition at 400 µg/mL amounted to 84.3 ± 1.1%. For the same compound, the “intensity of SRS-A suppression compared with BW-755C” value in experiment [3] (in words, measured at the same time) is given as “obviously better than the suppressing action of BW-755C”. In addition, in experiment [5], the “suppression of airway contraction reaction (increase in air overflow)” value is “significantly suppressed”.

A word on the IC50: it is the concentration that gives 50% inhibition.
